{"source": "paper PMC10112268", "about": "“Inhibition of Human Coronaviruses by Combinations of Host-Targeted and Direct-Acting Antivirals” (Antimicrobial Agents and Chemotherapy, 2023)", "key": {"[1]": {"tested_on": "HCoV-229E-GFP", "experiment": "microbe, parasite or virus in culture", "type": "cell-based", "settings": "for IC50: Human coronavirus 229E"}, "[2]": {"tested_on": "HCoV-OC43", "experiment": "microbe, parasite or virus in culture", "type": "cell-based"}, "[3]": {"tested_on": "SARS-CoV-2 isolate MAD6 (Wuhan-Hu-1 strain)", "experiment": "Virus yield inhibition in infected Calu3 2B4 cells, plaque assay on Vero E6", "type": "cell-based"}, "[4]": {"tested_on": "SARS-CoV-2 isolate 39896362_AG (omicron strain)", "experiment": "microbe, parasite or virus in culture", "type": "cell-based", "settings": "[…], Fig. 1"}, "[5]": {"tested_on": "HCoV-229E, HCoV-OC43, and SARS-CoV-2", "experiment": "Antiviral assays, summary over all tested HCoVs", "type": "cell-based, human coronaviruses"}, "[6]": {"tested_on": "HCoV-229E-GFP", "experiment": "Time of addition assay", "type": "cell-based", "settings": "for IC50: Human coronavirus 229E, 24 hpi"}, "[7]": {"tested_on": "HCoV-OC43", "experiment": "Time of addition assay", "type": "cell-based", "settings": "for IC50: 48 hpi"}, "[8]": {"tested_on": "SARS-CoV-2 isolate MAD6 (Wuhan-Hu-1 strain)", "experiment": "Time of addition assay", "type": "cell-based", "settings": "for IC50: 24 hpi, read-out: IC50, SARS-CoV-2 production"}, "[9]": {"tested_on": "HCoV-229E-GFP", "type": "cell-based", "settings": "at 16 μM LG; no drug 3.5 ± 0.6 × 10^6"}, "[10]": {"tested_on": "HCoV-OC43", "type": "cell-based", "settings": "at 32 μM LG; no drug 3.2 ± 0.2 × 10^6"}, "[11]": {"tested_on": "SARS-CoV-2 (MAD6)", "experiment": "Drug combination (synergy) study, virus yield in Calu3 2B4, CompuSyn", "type": "cell-based"}, "[12]": {"tested_on": "HCoV-229E-GFP", "experiment": "Direct virucidal effect on virus particles", "settings": "10^5 PFU, 1 h at room temperature; LG 0 to 300 μM, VPA 0 to 300 mM"}, "[13]": {"tested_on": "HCoV-OC43", "experiment": "Direct virucidal effect on virus particles", "settings": "10^5 PFU, 1 h at room temperature; LG 0 to 300 μM, VPA 0 to 300 mM"}, "[14]": {"tested_on": "SARS-CoV-2", "experiment": "Direct virucidal effect on virus particles", "settings": "10^5 PFU, 1 h at room temperature; LG 0 to 300 μM, VPA 0 to 300 mM"}, "[15]": {"tested_on": "TGEV", "experiment": "Antiviral effect against TGEV in WSL or ST cells, plaque assay on ST", "type": "cell-based, swine coronavirus TGEV", "settings": "LG in WSL cells, VPA in ST cells", "experimental": "Figure S2. […] The inhibitory effect […]\nof LG or VPA was assayed on triplicate cultures of TGEV-infected WSL (wild swine macrophage cell line) or ST (swine testis) cells, respectively. After 1 h-pre-incubation with AVs, triplicate cultures were infected with the corresponding virus, at a MOI of 2 PFU/cell, in a reduced volume of medium containing the AV, for 2h, virus inoculum removed and cells washed twice with medium, before the addition of drug-containing fresh medium (supplemented with 2% FBS). Cultures were then incubated for 24 h at 37 °C; total virus (intracellular and extracellular) production was evaluated by plaque assay on triplicate cultures of ST cells. Left y-axis represents infectious virus progeny at 24 hpi and right y-axis, cell viability determined by MTT assay of each corresponding cell line. IC50 values and SI values […]\n[TGEV titers (PFU/ml): 1.1±0.1 x 108 in the absence of the drugs, […]\n(1 picture or pasted object on this page, not shown here)"}, "[16]": {"settings": "long-term toxicity studies in rats and mice; cited from earlier work"}, "[17]": {"experiment": "in vitro", "settings": "human, CC50 (MTT assay), Huh-7"}, "[18]": {"experiment": "in vitro", "settings": "human, CC50 (MTT assay), HCT-8"}, "[19]": {"experiment": "in vitro", "settings": "African green monkey"}, "[20]": {"experiment": "in vitro", "settings": "human"}, "[21]": {"tested_on": "FMDV", "settings": "mouse, cited from earlier work"}}, "note": "Like-named read-outs stand apart in the source and are kept apart here.", "data": [{"smiles": "CCCCCCCCCCCCOC(=O)c1cc(O)c(O)c(O)c1", "note": "[LG, lauryl gallate]", "values": [{"measurement": "selectivity index (SI=CC50/IC50)", "setting": "[1]", "value": 79.14}, {"measurement": "IC50", "setting": "[1]; Huh-7, read-out: IC50, virus yield, Huh-7, AV from 1 h before adsorption, 24 hpi, Fig. 1", "value": "1050 ± 300", "unit": "nM"}, {"measurement": "IC50", "setting": "[1]; Huh-7, read-out: IC50, virus yield, specificity experiment (Fig. 3), Huh-7, 24 hpi", "value": 1720, "unit": "nM"}, {"measurement": "HCoV-229E-GFP titers", "setting": "[1]; at 100 μM, Fig. 3, no drug 4 ± 0.9 × 10^6", "value": "5 ± 0.2 × 10^2 PFU/mL"}, {"measurement": "HCoV-229E-GFP titers", "setting": "[1]; at LG 40 μM, 24 hpi, no drug 3 ± 0.5 × 10^6, Fig. 1", "value": "1.4 ± 0.2 × 10^2 PFU/mL"}, {"measurement": "selectivity index (SI=CC50/IC50)", "setting": "[2]", "value": 33.74}, {"measurement": "IC50", "setting": "[2]; Betacoronavirus 1, OC43, Huh-7, read-out: IC50, virus yield, Huh-7, AV from 1 h before adsorption, 48 hpi, Fig. 1", "value": "1630 ± 600", "unit": "nM"}, {"measurement": "IC50", "setting": "[2]; Betacoronavirus 1, OC43, Huh-7, read-out: IC50, virus yield, specificity experiment (Fig. 3), Huh-7, 48 hpi", "value": 1140, "unit": "nM"}, {"measurement": "HCoV-OC43 titers", "setting": "[2]; at 100 μM, Fig. 3, no drug 1.8 ± 0.9 × 10^6", "value": "5 ± 0.01 × 10^1 PFU/mL"}, {"measurement": "HCoV-OC43 titers", "setting": "[2]; at LG 40 μM, 48 hpi, no drug 3.1 ± 0.9 × 10^6, Fig. 1", "value": "5 ± 0.01 × 10^1 PFU/mL"}, {"measurement": "IC50", "setting": "[3]; Severe acute respiratory syndrome coronavirus 2, Calu-3 2B4, read-out: IC50, virus yield, Calu3 2B4, Wuhan-Hu-1 strain, AV from 1 h before adsorption, 24 hpi, Fig. 1", "value": "2260 ± 500", "unit": "nM"}, {"measurement": "SARS-CoV-2 titers", "setting": "[3]; at 100 μM, Fig. 3, no drug 3.±0.1 × 10^5", "value": "1 ± 0.1 × 10^2 PFU/mL"}, {"measurement": "SARS-CoV-2 isolate MAD6 titers", "setting": "[3]; at LG 100 μM, 24 hpi, no drug 3.4 ± 1 × 10^5, Fig. 1", "value": "5 ± 0.01 × 10^1 PFU/mL"}, {"measurement": "IC50", "setting": "[4]; Severe acute respiratory syndrome coronavirus 2, Vero C1008, Vero E6, omicron strain, AV from 1 h before adsorption, read-out: IC50, virus yield", "value": "1360 ± 200", "unit": "nM"}, {"measurement": "SARS-CoV-2 isolate 39896362_AG titers", "setting": "[4]; at LG 64 μM, no drug 1 ± 0.1 × 10^5", "value": "5 ± 0.01 × 10^1 PFU/mL"}, {"measurement": "SI values for all tested HCoVs", "setting": "[5]", "value": "above 30"}, {"measurement": "IC50", "setting": "[5]; average over all tested HCoVs, read-out: average IC50 value", "value": 1600, "unit": "nM"}, {"measurement": "IC50", "setting": "[5]; range over tested HCoVs, read-out: IC50 values, range over HCoVs", "value": "1000 to 2000", "unit": "nM"}, {"measurement": "IC50", "setting": "[6]; read-out: IC50, HCoV-229E-GFP production, AV added 0 hpi", "value": 1480, "unit": "nM"}, {"measurement": "IC50", "setting": "[6]; read-out: IC50, HCoV-229E-GFP production, AV added 2 hpi", "value": 2050, "unit": "nM"}, {"measurement": "IC50", "setting": "[6]; read-out: IC50, HCoV-229E-GFP production, AV added −3 hpi (1 h before adsorption)", "value": 1240, "unit": "nM"}, {"measurement": "HCoV-229E-GFP average titers", "setting": "[6]; at 40 μM LG, average of addition times, no drug 4 ± 0.6 × 10^6", "value": "6 ± 2 × 10^2 PFU/mL"}, {"measurement": "IC50", "setting": "[7]; Betacoronavirus 1, OC43, read-out: IC50, HCoV-OC43 production, AV added 0 hpi", "value": 1920, "unit": "nM"}, {"measurement": "IC50", "setting": "[7]; Betacoronavirus 1, OC43, read-out: IC50, HCoV-OC43 production, AV added 2 hpi", "value": 2970, "unit": "nM"}, {"measurement": "IC50", "setting": "[7]; Betacoronavirus 1, OC43, read-out: IC50, HCoV-OC43 production, AV added −3 hpi (1 h before adsorption)", "value": 1790, "unit": "nM"}, {"measurement": "HCoV-OC43 average titers", "setting": "[7]; at 40 μM LG, average of addition times, no drug 3.5 ± 0.5 × 10^6", "value": "5 ± 0.01 × 10^1 PFU/mL"}, {"measurement": "IC50", "setting": "[8]; Severe acute respiratory syndrome coronavirus 2, AV added 0 hpi", "value": 2900, "unit": "nM"}, {"measurement": "IC50", "setting": "[8]; Severe acute respiratory syndrome coronavirus 2, AV added 2 hpi", "value": 3090, "unit": "nM"}, {"measurement": "IC50", "setting": "[8]; Severe acute respiratory syndrome coronavirus 2, AV added −2 hpi (1 h before adsorption)", "value": 2720, "unit": "nM"}, {"measurement": "SARS-CoV-2 average titers", "setting": "[8]; at 100 μM LG, average of addition times, no drug 3.4 ± 0.2 × 10^5", "value": "5 ± 0.01 × 10^1 PFU/mL"}, {"measurement": "HCoV-229E-GFP titers", "setting": "[9]", "value": "5 ± 0.2 × 10^2 PFU/mL"}, {"measurement": "HCoV-OC43 titers", "setting": "[10]", "value": "2.2 ± 0.2 × 10^3 PFU/mL"}, {"measurement": "SARS-CoV-2 titers", "setting": "[11]; at 16 μM LG, no drug 3.2 ± 0.2 × 10^5", "value": "6 ± 0.2 × 10^3 PFU/mL"}, {"measurement": "average DRI", "setting": "[11]; for the named drug over its combinations, at Fa = 0.5 to 0.95", "value": 4.25}, {"measurement": "direct virucidal effect (change in virus titers)", "setting": "[12]", "value": "No decrease in virus titers"}, {"measurement": "direct virucidal effect (change in virus titers)", "setting": "[13]", "value": "No decrease in virus titers"}, {"measurement": "direct virucidal effect (change in virus titers)", "setting": "[14]", "value": "No decrease in virus titers"}, {"measurement": "inhibition of TGEV multiplication", "setting": "[15]", "value": "inhibited the multiplication"}, {"measurement": "highest dose at which no effects were observed", "setting": "[16]", "value": "1,000 mg kg-1 of feed"}, {"measurement": "CC50", "setting": "[17]; 24 h cell incubation with AV", "value": 83100, "unit": "nM"}, {"measurement": "CC50", "setting": "[17]; 48 h cell incubation with AV", "value": 55000, "unit": "nM"}, {"measurement": "CC50", "setting": "[18]; 24 h cell incubation with AV", "value": 55000, "unit": "nM"}, {"measurement": "CC50", "setting": "[18]; 48 h cell incubation with AV", "value": 50400, "unit": "nM"}, {"measurement": "CC50", "setting": "[19]", "value": 90900, "unit": "nM"}, {"measurement": "CC50", "setting": "[20]", "value": 124000, "unit": "nM"}, {"measurement": "toxicity to the animals", "setting": "[21]; in vivo", "value": "not found to be toxic"}, {"measurement": "in vivo antiviral effect against FMDV", "setting": "[21]", "value": "reducing FMDV-induced mortality and viral load in mice"}]}]}
